US9738634B2, “Heterocyclic amide compound and herbicide” (SYNGENTA PARTICIPATIONS AG, priority 2013, dated 2017)

What was measured:
Type in all cases: in vivo
chickweed [1] = assay: Test Example 3: weedkilling efficacy through soil treatment; N: chickweed; settings: treatment dosage 315 g/ha
Method in brief: (§1)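 Crop and weed responses were judged three weeks after a uniform surface spray of the water-diluted emulsion at the given g/ha rate. Seeds sat beneath about 1.5 cm of sterilized diluvial soil, and boxes stood in a greenhouse at 25 to 30° C.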

wheat [2] = assay: Test Example 3: soil treatment, effect on crop; e: wheat; settings: treatment dosage 315 g/ha
Method in brief: as §1

oval-leafed pondweed [3] = assay: Test Example 1: weedkilling efficacy, preemergent weed treatment in the submerged state; C: oval-leafed pondweed; settings: treatment dosage 252 g/ha
Method in brief: (§2)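 Visual scores against set criteria were taken 3 weeks after treatment. Compounds, as diluted emulsions at specified g/ha, went onto the water surface of 4 cm-flooded alluvial soil pots on the day weeds were sown and 2.5-leaf rice was transplanted; greenhouse held 25–30 °C.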

Indian mallow [4] = assay: Test Example 3: weedkilling efficacy through soil treatment; K: Indian mallow; settings: treatment dosage 315 g/ha
Method in brief: as §1

Italian ryegrass [5] = assay: Test Example 4: weedkilling efficacy by foliar treatment; I: Italian ryegrass; settings: treatment dosage 315 g/ha
Method in brief: (§3)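 Seeds are spot-sown into sterilized diluvial soil and covered with about 1.5 cm of soil. After 14 days' greenhouse growth at 25 to 30° C, plants are sprayed on stems and leaves with diluted emulsion at the stated g/ha rate, then scored at 3 weeks.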

beet [6] = assay: Test Example 3: soil treatment, effect on crop; f: beet; settings: treatment dosage 315 g/ha
Method in brief: as §1

redroot pigweed [7] = assay: Test Example 4: weedkilling efficacy by foliar treatment; L: redroot pigweed; settings: treatment dosage 315 g/ha
Method in brief: as §3

bulrush [8] = assay: Test Example 1: weedkilling efficacy, preemergent weed treatment in the submerged state; B: bulrush; settings: treatment dosage 252 g/ha
Method in brief: as §2

green foxtail [9] = assay: Test Example 4: weedkilling efficacy by foliar treatment; E: green foxtail; settings: treatment dosage 315 g/ha
Method in brief: as §3

catchweed = assay: Test Example 4: weedkilling efficacy by foliar treatment; O: catchweed; settings: treatment dosage 315 g/ha
Method in brief: as §3

Italian ryegrass [10] = assay: Test Example 3: weedkilling efficacy through soil treatment; I: Italian ryegrass; settings: treatment dosage 315 g/ha
Method in brief: as §1

beet [11] = assay: Test Example 4: foliar treatment, effect on crop; f: beet; settings: treatment dosage 315 g/ha
Method in brief: as §3

wheat [12] = assay: Test Example 4: foliar treatment, effect on crop; e: wheat; settings: treatment dosage 315 g/ha
Method in brief: as §3

black-grass [13] = assay: Test Example 3: weedkilling efficacy through soil treatment; H: black-grass; settings: treatment dosage 315 g/ha
Method in brief: as §1

soybean [14] = assay: Test Example 3: soil treatment, effect on crop; d: soybean; settings: treatment dosage 315 g/ha
Method in brief: as §1

crabgrass [15] = assay: Test Example 3: weedkilling efficacy through soil treatment; D: crabgrass; settings: treatment dosage 315 g/ha
Method in brief: as §1

wild oat [16] = assay: Test Example 4: weedkilling efficacy by foliar treatment; G: wild oat; settings: treatment dosage 315 g/ha
Method in brief: as §3

wild oat [17] = assay: Test Example 3: weedkilling efficacy through soil treatment; G: wild oat; settings: treatment dosage 315 g/ha
Method in brief: as §1

chickweed [18] = assay: Test Example 4: weedkilling efficacy by foliar treatment; N: chickweed; settings: treatment dosage 315 g/ha
Method in brief: as §3

black-grass [19] = assay: Test Example 4: weedkilling efficacy by foliar treatment; H: black-grass; settings: treatment dosage 315 g/ha
Method in brief: as §3

oval-leafed pondweed [20] = assay: Test Example 2: weedkilling efficacy, growth period weed treatment in the submerged state; C: oval-leafed pondweed; settings: treatment dosage 252 g/ha
Method in brief: (§4)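 Barnyard grass, bulrush and oval-leafed pondweed sown in alluvial soil under 4 cm flooding, greenhouse 25 to 30° C. At 1-2 leaf stage, water-diluted emulsion applied to the water surface at stated g/ha dosages; effects scored 3 weeks later.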

green foxtail [21] = assay: Test Example 3: weedkilling efficacy through soil treatment; E: green foxtail; settings: treatment dosage 315 g/ha
Method in brief: as §1

directly sown rice [22] = assay: Test Example 4: foliar treatment, effect on crop; b: directly sown rice; settings: treatment dosage 315 g/ha
Method in brief: as §3

corn [23] = assay: Test Example 3: soil treatment, effect on crop; c: corn; settings: treatment dosage 315 g/ha
Method in brief: as §1

crabgrass [24] = assay: Test Example 4: weedkilling efficacy by foliar treatment; D: crabgrass; settings: treatment dosage 315 g/ha
Method in brief: as §3

fig-leafed goosefoot [25] = assay: Test Example 4: weedkilling efficacy by foliar treatment; M: fig-leafed goosefoot; settings: treatment dosage 315 g/ha
Method in brief: as §3

bulrush [26] = assay: Test Example 2: weedkilling efficacy, growth period weed treatment in the submerged state; B: bulrush; settings: treatment dosage 252 g/ha
Method in brief: as §4

fig-leafed goosefoot [27] = assay: Test Example 3: weedkilling efficacy through soil treatment; M: fig-leafed goosefoot; settings: treatment dosage 315 g/ha
Method in brief: as §1

redroot pigweed [28] = assay: Test Example 3: weedkilling efficacy through soil treatment; L: redroot pigweed; settings: treatment dosage 315 g/ha
Method in brief: as §1

birds-eye speedwell [29] = assay: Test Example 3: weedkilling efficacy through soil treatment; p: birds-eye speedwell; settings: treatment dosage 315 g/ha
Method in brief: as §1

Indian mallow [30] = assay: Test Example 4: weedkilling efficacy by foliar treatment; K: Indian mallow; settings: treatment dosage 315 g/ha
Method in brief: as §3

barnyard grass [31] = assay: Test Example 2: weedkilling efficacy, growth period weed treatment in the submerged state; A: barnyard grass; settings: treatment dosage 252 g/ha
Method in brief: as §4

transplanted rice = assay: Test Example 1: preemergent weed treatment in the submerged state, effect on crop; a: transplanted rice; settings: treatment dosage 252 g/ha
Method in brief: as §2

soybean [32] = assay: Test Example 4: foliar treatment, effect on crop; d: soybean; settings: treatment dosage 315 g/ha
Method in brief: as §3

barnyard grass [33] = assay: Test Example 1: weedkilling efficacy, preemergent weed treatment in the submerged state; A: barnyard grass; settings: treatment dosage 252 g/ha
Method in brief: as §2

directly sown rice [34] = assay: Test Example 3: soil treatment, effect on crop; b: directly sown rice; settings: treatment dosage 315 g/ha
Method in brief: as §1

birds-eye speedwell [35] = assay: Test Example 4: weedkilling efficacy by foliar treatment; p: birds-eye speedwell; settings: treatment dosage 315 g/ha
Method in brief: as §3

corn [36] = assay: Test Example 4: foliar treatment, effect on crop; c: corn; settings: treatment dosage 315 g/ha
Method in brief: as §3

| Compound | N (chickweed) weedkilling efficacy grade (chickweed [1]) | e (wheat) effect on crop grade (wheat [2]) | C (oval-leafed pondweed) weedkilling efficacy grade (oval-leafed pondweed [3]) | K (Indian mallow) weedkilling efficacy grade (Indian mallow [4]) | I (Italian ryegrass) weedkilling efficacy grade (Italian ryegrass [5]) | L (redroot pigweed) weedkilling efficacy grade (redroot pigweed [7]) | B (bulrush) weedkilling efficacy grade (bulrush [8]) | E (green foxtail) weedkilling efficacy grade (green foxtail [9]) | O (catchweed) weedkilling efficacy grade (catchweed) | I (Italian ryegrass) weedkilling efficacy grade (Italian ryegrass [10]) | f (beet) effect on crop grade (beet [11]) | e (wheat) effect on crop grade (wheat [12]) | H (black-grass) weedkilling efficacy grade (black-grass [13]) | d (soybean) effect on crop grade (soybean [14]) | D (crabgrass) weedkilling efficacy grade (crabgrass [15]) | G (wild oat) weedkilling efficacy grade (wild oat [16]) | G (wild oat) weedkilling efficacy grade (wild oat [17]) | N (chickweed) weedkilling efficacy grade (chickweed [18]) | H (black-grass) weedkilling efficacy grade (black-grass [19]) | E (green foxtail) weedkilling efficacy grade (green foxtail [21]) | also measured |
| --- | --- | --- | --- | --- | --- | --- | --- | --- | --- | --- | --- | --- | --- | --- | --- | --- | --- | --- | --- | --- | --- |
| CC1=C(c2ccccc2)C(=O)N(C(C)(C)C(=O)Nc2nc(Cl)ns2)CO1 [B-1-12] | 4 (weed kill ratio 70% or more, less than 90%) | 0 (weed kill ratio 5% or less (practically no effect)) | 5 (weed kill ratio 90% or more, (practically complete withering)) | 4 (weed kill ratio 70% or more, less than 90%) | 1 (weed kill ratio 5% or more, less than 20%) | 0 (weed kill ratio 5% or less (practically no effect)) | 5 (weed kill ratio 90% or more, (practically complete withering)) | 5 (weed kill ratio 90% or more, (practically complete withering)) | 3 (weed kill ratio 40% or more, less than 70%) | 2 (weed kill ratio 20% or more, less than 40%) | 4 (weed kill ratio 70% or more, less than 90%) | 0 (weed kill ratio 5% or less (practically no effect)) | 4 (weed kill ratio 70% or more, less than 90%) | 0 (weed kill ratio 5% or less (practically no effect)) | 5 (weed kill ratio 90% or more, (practically complete withering)) | 3 (weed kill ratio 40% or more, less than 70%) | 3 (weed kill ratio 40% or more, less than 70%) | 4 (weed kill ratio 70% or more, less than 90%) | 4 (weed kill ratio 70% or more, less than 90%) | 5 (weed kill ratio 90% or more, (practically complete withering)) | f (beet) effect on crop grade (beet [6]): 5 (weed kill ratio 90% or more, (practically complete withering)); C (oval-leafed pondweed) weedkilling efficacy grade (oval-leafed pondweed [20]): 5 (weed kill ratio 90% or more, (practically complete withering)); b (directly sown rice) effect on crop grade (directly sown rice [22]): 3 (weed kill ratio 40% or more, less than 70%); c (corn) effect on crop grade (corn [23]): 5 (weed kill ratio 90% or more, (practically complete withering)); D (crabgrass) weedkilling efficacy grade (crabgrass [24]): 5 (weed kill ratio 90% or more, (practically complete withering)); M (fig-leafed goosefoot) weedkilling efficacy grade (fig-leafed goosefoot [25]): 4 (weed kill ratio 70% or more, less than 90%); B (bulrush) weedkilling efficacy grade (bulrush [26]): 5 (weed kill ratio 90% or more, (practically complete withering)); M (fig-leafed goosefoot) weedkilling efficacy grade (fig-leafed goosefoot [27]): 4 (weed kill ratio 70% or more, less than 90%); L (redroot pigweed) weedkilling efficacy grade (redroot pigweed [28]): 4 (weed kill ratio 70% or more, less than 90%); P (birds-eye speedwell) weedkilling efficacy grade (birds-eye speedwell [29]): 4 (weed kill ratio 70% or more, less than 90%); K (Indian mallow) weedkilling efficacy grade (Indian mallow [30]): 3 (weed kill ratio 40% or more, less than 70%); A (barnyard grass) weedkilling efficacy grade (barnyard grass [31]): 5 (weed kill ratio 90% or more, (practically complete withering)); a (transplanted rice) effect on crop grade (transplanted rice): 0 (weed kill ratio 5% or less (practically no effect)); d (soybean) effect on crop grade (soybean [32]): 0 (weed kill ratio 5% or less (practically no effect)); A (barnyard grass) weedkilling efficacy grade (barnyard grass [33]): 5 (weed kill ratio 90% or more, (practically complete withering)); b (directly sown rice) effect on crop grade (directly sown rice [34]): 5 (weed kill ratio 90% or more, (practically complete withering)); P (birds-eye speedwell) weedkilling efficacy grade (birds-eye speedwell [35]): 3 (weed kill ratio 40% or more, less than 70%); c (corn) effect on crop grade (corn [36]): 5 (weed kill ratio 90% or more, (practically complete withering)) |
| CC1=C(c2ccccc2)C(=O)N(C(C)(C)C(=O)Nc2cc(Cl)nc(Cl)c2)CO1 [B-4-05] | 3 (weed kill ratio 40% or more, less than 70%) | 0 (weed kill ratio 5% or less (practically no effect)) | 5 (weed kill ratio 90% or more, (practically complete withering)) | 3 (weed kill ratio 40% or more, less than 70%) | 5 (weed kill ratio 90% or more, (practically complete withering)) | 3 (weed kill ratio 40% or more, less than 70%) | 5 (weed kill ratio 90% or more, (practically complete withering)) | 5 (weed kill ratio 90% or more, (practically complete withering)) | 1 (weed kill ratio 5% or more, less than 20%) | 5 (weed kill ratio 90% or more, (practically complete withering)) | 0 (weed kill ratio 5% or less (practically no effect)) | 0 (weed kill ratio 5% or less (practically no effect)) | 5 (weed kill ratio 90% or more, (practically complete withering)) | 0 (weed kill ratio 5% or less (practically no effect)) | 5 (weed kill ratio 90% or more, (practically complete withering)) | 4 (weed kill ratio 70% or more, less than 90%) | 5 (weed kill ratio 90% or more, (practically complete withering)) | 2 (weed kill ratio 20% or more, less than 40%) | 4 (weed kill ratio 70% or more, less than 90%) | 5 (weed kill ratio 90% or more, (practically complete withering)) | b (directly sown rice) effect on crop grade (directly sown rice [22]): 5 (weed kill ratio 90% or more, (practically complete withering)); c (corn) effect on crop grade (corn [23]): 0 (weed kill ratio 5% or less (practically no effect)); D (crabgrass) weedkilling efficacy grade (crabgrass [24]): 5 (weed kill ratio 90% or more, (practically complete withering)); M (fig-leafed goosefoot) weedkilling efficacy grade (fig-leafed goosefoot [25]): 2 (weed kill ratio 20% or more, less than 40%); B (bulrush) weedkilling efficacy grade (bulrush [26]): 5 (weed kill ratio 90% or more, (practically complete withering)); M (fig-leafed goosefoot) weedkilling efficacy grade (fig-leafed goosefoot [27]): 4 (weed kill ratio 70% or more, less than 90%); L (redroot pigweed) weedkilling efficacy grade (redroot pigweed [28]): 4 (weed kill ratio 70% or more, less than 90%); P (birds-eye speedwell) weedkilling efficacy grade (birds-eye speedwell [29]): 5 (weed kill ratio 90% or more, (practically complete withering)); K (Indian mallow) weedkilling efficacy grade (Indian mallow [30]): 3 (weed kill ratio 40% or more, less than 70%); A (barnyard grass) weedkilling efficacy grade (barnyard grass [31]): 4 (weed kill ratio 70% or more, less than 90%); a (transplanted rice) effect on crop grade (transplanted rice): 0 (weed kill ratio 5% or less (practically no effect)); d (soybean) effect on crop grade (soybean [32]): 3 (weed kill ratio 40% or more, less than 70%); A (barnyard grass) weedkilling efficacy grade (barnyard grass [33]): 5 (weed kill ratio 90% or more, (practically complete withering)); b (directly sown rice) effect on crop grade (directly sown rice [34]): 5 (weed kill ratio 90% or more, (practically complete withering)); P (birds-eye speedwell) weedkilling efficacy grade (birds-eye speedwell [35]): 4 (weed kill ratio 70% or more, less than 90%); c (corn) effect on crop grade (corn [36]): 3 (weed kill ratio 40% or more, less than 70%) |
